“And” between values parts separate entries of the source, which are not always exact repeats. Equal values may be shown once.
Key:
[1] = biological target: T1, GRK6 (Homo sapiens, UniProt P43250); experiment: GRK6 phosphorylation of rhodopsin; type: biochemical; conditions: for effect on GRK6 activity: in the presence of Mg2+; for IC50: purified GRK6, read-out: IC50 for inhibiting GRK6; for fold less effective as inhibitor of GRK6 compared to GRK5: GRK6 versus GRK5
T1 construct: The presence of the full length GRK6 cDNA within the genome of the recombinant baculovirus was confirmed; made in house; host or cells: Sf9 insect cells (baculovirus, pBacPAK1)

[2] = biological target: T2, GRK5 (Homo sapiens, UniProt P34947); experiment: GRK5 phosphorylation of rhodopsin (receptor phosphorylation); type: biochemical; conditions: purified GRK5; read-out: IC50 for inhibiting GRK5
T2 construct: The GRK5 ORF was initially excised by restriction digestion of the full length clone pGRK5 using NaeI and SmaI; made in house; host or cells: Sf9 insect cells (baculovirus, pBacPAK1)

[3] = biological target: T2, GRK5; experiment: as above; type: biochemical; conditions: for reversal of heparin inhibition of GRK5: in presence of heparin
Method: Rod outer segments (ROS) were prepared in accordance with methods known to those skilled in the art. Rhodopsin kinase free membranes were prepared by suspending the ROS in 50 mM Tris-HCl, pH 8.0, 5 mM EDTA, 5M urea and sonicating. The urea treated ROS were washed several times by centrifugation and resuspended in 50 mM Tris-HCl, pH 7.5 at a protein concentration of ˜1 mg/ml. Phosphorylation reactions contained 5 μg of total protein from the Sf9 cell supernatants expressing either GRK5 or βARK, urea treated ROS (80 pmol rhodopsin), 20 mM Tris-HCl, pH 7.5, 2 mM EDTA, 6 mM MgCl2 and 0.1 mM [γ-^32P] ATP, in a total reaction volume of 30 μl. When the effect of G protein βγ subunits was assessed, the reactions also contained 0.25 mM dithiothreitol, 0.01% Lubrol and 62 mM NaCl with or without 100 nM βγ subunits. Reactions were incubated at 30° C. for 15 minutes and then stopped by the addition of 50 μl of SDS sample buffer. Samples were electrophoresed on a 10% homogeneous SDS polyacrylamide gel by the method of Laemmli which is well known to those skilled in the art. Gels were dried and autoradiographed at room temperature for 30-120 minutes. The rhodopsin bands in the gel were then cut and counted in a scintillation counter.

[4] = biological target: T2, GRK5; experiment: GRK5 autophosphorylation; type: biochemical
[5] = biological target: T3, rhodopsin kinase (Bos taurus, UniProt P28327); conditions: cited from earlier work
T3 sequence (P28327 1-561): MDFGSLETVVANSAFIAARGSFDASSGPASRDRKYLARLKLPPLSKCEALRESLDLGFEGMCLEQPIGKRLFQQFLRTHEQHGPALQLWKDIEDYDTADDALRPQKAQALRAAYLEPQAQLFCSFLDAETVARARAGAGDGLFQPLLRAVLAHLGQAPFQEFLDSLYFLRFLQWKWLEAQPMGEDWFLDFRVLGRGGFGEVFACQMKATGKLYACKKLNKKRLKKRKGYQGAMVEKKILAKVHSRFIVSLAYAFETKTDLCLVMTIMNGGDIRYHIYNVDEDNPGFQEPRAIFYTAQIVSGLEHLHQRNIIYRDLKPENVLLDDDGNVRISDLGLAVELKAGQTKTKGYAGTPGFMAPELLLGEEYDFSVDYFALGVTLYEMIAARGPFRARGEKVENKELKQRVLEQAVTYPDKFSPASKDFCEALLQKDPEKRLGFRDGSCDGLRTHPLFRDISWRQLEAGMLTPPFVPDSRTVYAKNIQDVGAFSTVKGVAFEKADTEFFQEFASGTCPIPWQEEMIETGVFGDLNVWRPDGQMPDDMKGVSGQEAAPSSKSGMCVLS

[6] = biological target: T4, βARK (Bos taurus, UniProt P21146); conditions: cited from earlier work
T4 sequence (P21146 1-689): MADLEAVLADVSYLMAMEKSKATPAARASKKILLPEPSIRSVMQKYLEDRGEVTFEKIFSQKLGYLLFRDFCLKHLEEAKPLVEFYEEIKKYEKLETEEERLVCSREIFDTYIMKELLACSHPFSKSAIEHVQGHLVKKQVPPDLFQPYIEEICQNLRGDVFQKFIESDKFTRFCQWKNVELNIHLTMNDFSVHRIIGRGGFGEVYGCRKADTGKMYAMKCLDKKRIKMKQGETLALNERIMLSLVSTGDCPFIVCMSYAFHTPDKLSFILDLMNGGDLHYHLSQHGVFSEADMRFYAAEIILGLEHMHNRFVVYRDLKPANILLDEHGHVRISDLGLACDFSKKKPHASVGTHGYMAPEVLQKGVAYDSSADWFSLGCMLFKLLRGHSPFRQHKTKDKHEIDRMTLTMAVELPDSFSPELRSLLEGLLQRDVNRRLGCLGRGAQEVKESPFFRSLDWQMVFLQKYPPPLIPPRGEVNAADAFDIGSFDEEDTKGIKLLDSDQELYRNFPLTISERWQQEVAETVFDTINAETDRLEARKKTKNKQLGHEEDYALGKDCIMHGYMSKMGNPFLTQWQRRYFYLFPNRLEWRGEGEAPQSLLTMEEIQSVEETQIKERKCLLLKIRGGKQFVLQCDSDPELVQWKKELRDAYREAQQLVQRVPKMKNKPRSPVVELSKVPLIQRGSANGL

[7] = biological target: casein kinase II (Homo sapiens, UniProt P67870+P68400); conditions: cited from earlier work
Sequence of casein kinase II (P68400 whole entry): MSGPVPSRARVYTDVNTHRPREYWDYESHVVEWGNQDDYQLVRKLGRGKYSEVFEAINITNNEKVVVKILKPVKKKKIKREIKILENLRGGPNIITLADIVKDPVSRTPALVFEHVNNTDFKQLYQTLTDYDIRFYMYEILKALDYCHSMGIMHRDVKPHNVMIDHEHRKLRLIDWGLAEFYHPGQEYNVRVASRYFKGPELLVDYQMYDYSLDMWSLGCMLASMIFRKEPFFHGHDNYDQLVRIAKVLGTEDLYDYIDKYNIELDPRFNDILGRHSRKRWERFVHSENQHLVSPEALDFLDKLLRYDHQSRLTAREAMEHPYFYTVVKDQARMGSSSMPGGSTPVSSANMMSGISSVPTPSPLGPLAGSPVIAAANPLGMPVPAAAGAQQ
Sequence of casein kinase II (P67870 whole entry): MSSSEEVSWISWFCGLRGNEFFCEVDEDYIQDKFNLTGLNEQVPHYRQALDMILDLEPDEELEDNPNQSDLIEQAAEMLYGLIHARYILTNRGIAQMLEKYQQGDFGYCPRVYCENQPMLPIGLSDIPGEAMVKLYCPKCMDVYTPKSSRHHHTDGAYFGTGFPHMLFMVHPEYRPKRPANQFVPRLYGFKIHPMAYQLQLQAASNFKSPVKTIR

T2 sequence (P34947 whole entry): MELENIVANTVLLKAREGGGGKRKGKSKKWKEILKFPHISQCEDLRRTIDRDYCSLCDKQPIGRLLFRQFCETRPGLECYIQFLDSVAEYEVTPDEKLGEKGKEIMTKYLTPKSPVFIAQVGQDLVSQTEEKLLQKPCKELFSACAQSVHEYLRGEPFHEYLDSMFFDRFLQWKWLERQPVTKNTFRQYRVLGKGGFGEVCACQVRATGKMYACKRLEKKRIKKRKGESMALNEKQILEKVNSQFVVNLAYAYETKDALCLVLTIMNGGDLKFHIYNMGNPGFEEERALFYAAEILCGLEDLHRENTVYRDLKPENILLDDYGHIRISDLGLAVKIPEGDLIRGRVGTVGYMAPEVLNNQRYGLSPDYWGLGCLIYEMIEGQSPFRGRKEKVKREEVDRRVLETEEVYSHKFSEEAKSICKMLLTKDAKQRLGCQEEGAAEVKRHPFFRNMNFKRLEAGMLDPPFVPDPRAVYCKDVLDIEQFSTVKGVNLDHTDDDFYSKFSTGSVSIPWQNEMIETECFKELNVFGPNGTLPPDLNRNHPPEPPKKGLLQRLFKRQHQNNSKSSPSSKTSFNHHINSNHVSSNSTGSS
T1 sequence (P43250 whole entry): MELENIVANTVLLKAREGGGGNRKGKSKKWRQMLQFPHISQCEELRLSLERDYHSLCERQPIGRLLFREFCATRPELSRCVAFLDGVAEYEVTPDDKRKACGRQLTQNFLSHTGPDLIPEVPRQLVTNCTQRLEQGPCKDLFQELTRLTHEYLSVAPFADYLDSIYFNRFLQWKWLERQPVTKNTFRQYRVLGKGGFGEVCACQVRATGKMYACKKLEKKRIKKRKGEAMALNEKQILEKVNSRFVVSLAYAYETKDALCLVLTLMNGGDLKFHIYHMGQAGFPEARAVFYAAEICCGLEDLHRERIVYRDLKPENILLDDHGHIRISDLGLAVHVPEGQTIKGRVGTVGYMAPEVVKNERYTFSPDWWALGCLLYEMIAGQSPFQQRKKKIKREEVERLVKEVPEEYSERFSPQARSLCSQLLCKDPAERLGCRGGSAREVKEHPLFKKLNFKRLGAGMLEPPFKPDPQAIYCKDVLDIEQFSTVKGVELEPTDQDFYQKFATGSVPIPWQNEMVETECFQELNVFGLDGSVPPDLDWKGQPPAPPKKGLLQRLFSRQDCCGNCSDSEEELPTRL

## [Ca+2] [Ca^2+]
[1]
  effect on GRK6 activity: inhibited

## CC1CNCCN1S(=O)(=O)c1cccc2cnccc12 (stereo not drawn) [H-7]
[2]
  IC50: ~170 µM

## Cl [NaCl]
[3]; IC50 for inhibiting GRK5 (receptor phosphorylation), purified GRK5
  IC50: ~60000 µM and 58000 µM
[4]
  IC50: ~70000 µM

## [Zn+2] [Zn^2+]
[1]
  effect on GRK6 activity: inhibited

## NCCCCNCCCN [spermidine]
[3]
  reversal of heparin inhibition of GRK5: effectively reversed
[3]; optimal concentrations
  activation of GRK5: ~1.5 fold
[5]
  effect on rhodopsin kinase: activators
[1]; optimal concentration range 0.1 to 0.5 mM
  enhancement of GRK6 activity: ~1.4 fold
[6]
  inhibition of βARK: weak inhibitors
[7]
  effect on casein kinase: activators

## NCCCNCCCCNCCCN [spermine]
[3]
  reversal of heparin inhibition of GRK5: effectively reversed
[3]; optimal concentrations
  activation of GRK5: ~1.8 fold
[5]
  effect on rhodopsin kinase: activators
[1]; optimal concentration range 0.01 to 0.1 mM
  elevation of GRK6 phosphorylation of rhodopsin: ~1.5 fold
[6]
  inhibition of βARK: weak inhibitors
[7]
  effect on casein kinase: activators

## dextran sulfate
[1]
  IC50: 0.007 µM
[2]
  IC50: ~0.0006 µM

## heparin
[5]
  IC50: ~200 µM
[1]
  IC50: ~0.015 µM
[4]; concentration of 10 μM
  inhibition of GRK5 autophosphorylation: does not inhibit
[2]
  IC50: ~0.001 µM

## polyaspartic acid
[1]
  fold less effective as inhibitor of GRK6 compared to GRK5: ~6 fold
  IC50: 0.487 µM

## polyglutamic acid
[1]
  fold less effective as inhibitor of GRK6 compared to GRK5: ~16 fold
  IC50: 0.4 µM

## polylysine
[3]
  reversal of heparin inhibition of GRK5: effectively reversed
[3]; optimal concentration of 10 μM
  activation of GRK5: ~2.6 fold
[5]
  effect on rhodopsin kinase: activators
[1]; optimal range 1 to 10 μM
  increase in GRK6 phosphorylation: ~2.7 fold
[6]
  inhibition of βARK: weak inhibitors
[7]
  effect on casein kinase: activators
